From ChEMBL document CHEMBL1150977, “A quantitative analysis of kinase inhibitor selectivity” (Nat Biotechnol, 2008)

Tests used:
[1] = molecular target: Casein kinase I isoform delta (Homo sapiens, UniProt P48730)
[2] = molecular target: Tyrosine-protein kinase Yes (Homo sapiens, UniProt P07947)
[3] = molecular target: Mitogen-activated protein kinase kinase kinase 10 (Homo sapiens, UniProt Q02779)
[4] = molecular target: Bone morphogenetic protein receptor type-1A (Homo sapiens, UniProt P36894)
[5] = molecular target: STE20-like serine/threonine-protein kinase (Homo sapiens, UniProt Q9H2G2)
[6] = molecular target: Mitogen-activated protein kinase 6 (Homo sapiens, UniProt Q16659)
[7] = molecular target: T1, Receptor-interacting serine/threonine-protein kinase 1 (Homo sapiens, UniProt Q13546)
T1 sequence (Q13546 whole entry): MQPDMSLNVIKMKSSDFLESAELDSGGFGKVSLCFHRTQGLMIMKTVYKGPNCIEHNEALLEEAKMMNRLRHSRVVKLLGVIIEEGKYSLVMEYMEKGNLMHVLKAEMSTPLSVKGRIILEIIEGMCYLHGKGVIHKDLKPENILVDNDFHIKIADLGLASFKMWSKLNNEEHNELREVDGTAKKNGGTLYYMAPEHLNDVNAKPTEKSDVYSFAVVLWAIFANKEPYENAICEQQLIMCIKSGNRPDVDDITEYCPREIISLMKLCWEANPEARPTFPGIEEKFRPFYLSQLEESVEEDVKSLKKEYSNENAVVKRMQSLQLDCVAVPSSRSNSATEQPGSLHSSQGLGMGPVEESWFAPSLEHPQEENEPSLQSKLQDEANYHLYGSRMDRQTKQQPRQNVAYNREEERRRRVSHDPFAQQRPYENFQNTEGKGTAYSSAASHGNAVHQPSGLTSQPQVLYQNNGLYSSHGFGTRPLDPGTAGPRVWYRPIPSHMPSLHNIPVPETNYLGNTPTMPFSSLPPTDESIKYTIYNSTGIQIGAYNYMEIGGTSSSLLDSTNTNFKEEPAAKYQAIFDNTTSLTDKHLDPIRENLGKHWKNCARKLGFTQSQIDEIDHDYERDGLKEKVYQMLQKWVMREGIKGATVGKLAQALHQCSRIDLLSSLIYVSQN

[8] = molecular target: RAF proto-oncogene serine/threonine-protein kinase (Homo sapiens, UniProt P04049)
[9] = molecular target: Ribosomal protein S6 kinase alpha-2 (Homo sapiens, UniProt Q15349)
[10] = molecular target: T2, Ephrin type-A receptor 3 (Homo sapiens, UniProt P29320)
T2 sequence (P29320 whole entry): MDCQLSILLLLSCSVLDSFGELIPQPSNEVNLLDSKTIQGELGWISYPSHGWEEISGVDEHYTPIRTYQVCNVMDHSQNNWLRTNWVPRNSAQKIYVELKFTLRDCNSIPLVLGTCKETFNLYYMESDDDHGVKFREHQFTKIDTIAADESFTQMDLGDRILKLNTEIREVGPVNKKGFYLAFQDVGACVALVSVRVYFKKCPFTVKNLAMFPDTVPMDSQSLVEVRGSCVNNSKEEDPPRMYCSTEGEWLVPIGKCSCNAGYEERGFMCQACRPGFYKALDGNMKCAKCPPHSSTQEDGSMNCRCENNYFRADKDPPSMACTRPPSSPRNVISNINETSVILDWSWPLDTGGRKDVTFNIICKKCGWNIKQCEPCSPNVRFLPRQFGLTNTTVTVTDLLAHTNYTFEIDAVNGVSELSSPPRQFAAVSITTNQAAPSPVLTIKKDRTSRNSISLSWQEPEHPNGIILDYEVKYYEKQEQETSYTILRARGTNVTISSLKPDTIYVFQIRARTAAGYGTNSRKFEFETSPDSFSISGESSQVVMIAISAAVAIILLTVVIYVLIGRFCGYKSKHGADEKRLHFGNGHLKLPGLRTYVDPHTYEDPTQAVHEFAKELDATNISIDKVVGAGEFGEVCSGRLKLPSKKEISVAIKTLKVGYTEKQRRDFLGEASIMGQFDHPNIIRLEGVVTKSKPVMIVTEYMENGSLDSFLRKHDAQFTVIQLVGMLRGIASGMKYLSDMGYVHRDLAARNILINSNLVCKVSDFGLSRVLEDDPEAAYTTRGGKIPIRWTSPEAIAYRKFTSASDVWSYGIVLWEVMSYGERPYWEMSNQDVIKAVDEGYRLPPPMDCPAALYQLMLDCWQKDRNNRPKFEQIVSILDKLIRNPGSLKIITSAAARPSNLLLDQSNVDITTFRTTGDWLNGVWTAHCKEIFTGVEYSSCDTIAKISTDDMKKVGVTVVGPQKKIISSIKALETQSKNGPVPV

[11] = molecular target: T3, Interleukin-1 receptor-associated kinase 3 (Homo sapiens, UniProt Q9Y616)
T3 sequence (Q9Y616 whole entry): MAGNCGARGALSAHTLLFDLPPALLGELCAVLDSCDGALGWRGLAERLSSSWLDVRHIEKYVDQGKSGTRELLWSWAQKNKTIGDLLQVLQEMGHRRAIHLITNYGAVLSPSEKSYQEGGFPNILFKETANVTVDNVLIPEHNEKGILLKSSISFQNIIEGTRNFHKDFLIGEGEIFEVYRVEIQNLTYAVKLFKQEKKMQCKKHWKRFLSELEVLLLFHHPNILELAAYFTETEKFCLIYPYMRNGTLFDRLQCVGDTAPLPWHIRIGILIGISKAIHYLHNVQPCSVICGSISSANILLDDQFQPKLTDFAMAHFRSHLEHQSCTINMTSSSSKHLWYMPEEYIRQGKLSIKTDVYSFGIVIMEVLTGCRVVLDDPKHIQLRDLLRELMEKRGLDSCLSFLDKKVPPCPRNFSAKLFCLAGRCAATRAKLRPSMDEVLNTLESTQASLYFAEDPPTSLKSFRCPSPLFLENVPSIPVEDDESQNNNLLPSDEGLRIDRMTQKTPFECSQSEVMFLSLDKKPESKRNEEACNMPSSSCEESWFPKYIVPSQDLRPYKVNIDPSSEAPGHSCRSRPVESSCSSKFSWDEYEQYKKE

[12] = molecular target: Tyrosine-protein kinase JAK1 (Homo sapiens, UniProt P23458)

Measured: Kd

Casein kinase I isoform delta, sequence (P48730 whole entry, canonical isoform): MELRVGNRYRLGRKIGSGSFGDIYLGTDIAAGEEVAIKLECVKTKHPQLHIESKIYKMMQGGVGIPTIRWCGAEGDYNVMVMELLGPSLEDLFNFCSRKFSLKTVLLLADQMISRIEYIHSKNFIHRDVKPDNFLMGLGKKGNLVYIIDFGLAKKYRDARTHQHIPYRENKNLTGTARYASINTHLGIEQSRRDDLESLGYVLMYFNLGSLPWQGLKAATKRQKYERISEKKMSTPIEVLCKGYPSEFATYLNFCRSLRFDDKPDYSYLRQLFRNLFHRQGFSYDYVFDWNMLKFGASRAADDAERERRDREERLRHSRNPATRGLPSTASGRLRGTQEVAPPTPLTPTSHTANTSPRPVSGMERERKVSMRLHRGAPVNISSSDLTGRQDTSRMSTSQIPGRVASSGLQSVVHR
Bone morphogenetic protein receptor type-1A, sequence (P36894 whole entry): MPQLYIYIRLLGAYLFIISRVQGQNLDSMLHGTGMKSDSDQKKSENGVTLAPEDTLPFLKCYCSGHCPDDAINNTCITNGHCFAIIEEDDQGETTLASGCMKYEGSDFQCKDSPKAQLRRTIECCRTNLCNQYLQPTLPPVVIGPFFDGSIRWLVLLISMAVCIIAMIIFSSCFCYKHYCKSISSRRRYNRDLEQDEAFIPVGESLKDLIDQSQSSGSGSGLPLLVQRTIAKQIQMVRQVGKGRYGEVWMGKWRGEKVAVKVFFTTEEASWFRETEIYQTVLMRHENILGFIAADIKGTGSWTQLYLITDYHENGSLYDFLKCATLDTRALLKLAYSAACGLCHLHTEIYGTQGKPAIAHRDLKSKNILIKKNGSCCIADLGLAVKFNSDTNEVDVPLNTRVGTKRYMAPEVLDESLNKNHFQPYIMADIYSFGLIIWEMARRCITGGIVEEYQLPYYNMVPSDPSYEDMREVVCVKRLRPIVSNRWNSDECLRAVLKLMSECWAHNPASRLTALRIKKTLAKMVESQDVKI
Mitogen-activated protein kinase 6, sequence (Q16659 whole entry): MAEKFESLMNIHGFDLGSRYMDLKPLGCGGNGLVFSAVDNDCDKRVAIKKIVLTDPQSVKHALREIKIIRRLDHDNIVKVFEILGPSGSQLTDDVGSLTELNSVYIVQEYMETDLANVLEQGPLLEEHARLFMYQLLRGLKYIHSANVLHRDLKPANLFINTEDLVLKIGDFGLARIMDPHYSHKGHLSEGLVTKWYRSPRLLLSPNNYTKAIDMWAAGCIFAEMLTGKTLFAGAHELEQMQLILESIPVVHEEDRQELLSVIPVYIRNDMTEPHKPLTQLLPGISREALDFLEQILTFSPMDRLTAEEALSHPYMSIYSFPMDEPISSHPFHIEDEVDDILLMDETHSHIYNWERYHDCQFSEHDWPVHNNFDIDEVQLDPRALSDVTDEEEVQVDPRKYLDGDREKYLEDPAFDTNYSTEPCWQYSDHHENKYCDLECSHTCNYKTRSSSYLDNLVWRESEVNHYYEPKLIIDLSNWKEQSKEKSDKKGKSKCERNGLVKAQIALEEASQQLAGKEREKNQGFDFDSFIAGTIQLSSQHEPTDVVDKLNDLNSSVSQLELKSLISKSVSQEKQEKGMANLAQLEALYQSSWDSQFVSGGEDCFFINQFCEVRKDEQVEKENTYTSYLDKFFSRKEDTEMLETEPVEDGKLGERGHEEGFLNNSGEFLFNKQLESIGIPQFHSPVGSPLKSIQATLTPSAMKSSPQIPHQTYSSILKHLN
Tyrosine-protein kinase JAK1, sequence (P23458 whole entry): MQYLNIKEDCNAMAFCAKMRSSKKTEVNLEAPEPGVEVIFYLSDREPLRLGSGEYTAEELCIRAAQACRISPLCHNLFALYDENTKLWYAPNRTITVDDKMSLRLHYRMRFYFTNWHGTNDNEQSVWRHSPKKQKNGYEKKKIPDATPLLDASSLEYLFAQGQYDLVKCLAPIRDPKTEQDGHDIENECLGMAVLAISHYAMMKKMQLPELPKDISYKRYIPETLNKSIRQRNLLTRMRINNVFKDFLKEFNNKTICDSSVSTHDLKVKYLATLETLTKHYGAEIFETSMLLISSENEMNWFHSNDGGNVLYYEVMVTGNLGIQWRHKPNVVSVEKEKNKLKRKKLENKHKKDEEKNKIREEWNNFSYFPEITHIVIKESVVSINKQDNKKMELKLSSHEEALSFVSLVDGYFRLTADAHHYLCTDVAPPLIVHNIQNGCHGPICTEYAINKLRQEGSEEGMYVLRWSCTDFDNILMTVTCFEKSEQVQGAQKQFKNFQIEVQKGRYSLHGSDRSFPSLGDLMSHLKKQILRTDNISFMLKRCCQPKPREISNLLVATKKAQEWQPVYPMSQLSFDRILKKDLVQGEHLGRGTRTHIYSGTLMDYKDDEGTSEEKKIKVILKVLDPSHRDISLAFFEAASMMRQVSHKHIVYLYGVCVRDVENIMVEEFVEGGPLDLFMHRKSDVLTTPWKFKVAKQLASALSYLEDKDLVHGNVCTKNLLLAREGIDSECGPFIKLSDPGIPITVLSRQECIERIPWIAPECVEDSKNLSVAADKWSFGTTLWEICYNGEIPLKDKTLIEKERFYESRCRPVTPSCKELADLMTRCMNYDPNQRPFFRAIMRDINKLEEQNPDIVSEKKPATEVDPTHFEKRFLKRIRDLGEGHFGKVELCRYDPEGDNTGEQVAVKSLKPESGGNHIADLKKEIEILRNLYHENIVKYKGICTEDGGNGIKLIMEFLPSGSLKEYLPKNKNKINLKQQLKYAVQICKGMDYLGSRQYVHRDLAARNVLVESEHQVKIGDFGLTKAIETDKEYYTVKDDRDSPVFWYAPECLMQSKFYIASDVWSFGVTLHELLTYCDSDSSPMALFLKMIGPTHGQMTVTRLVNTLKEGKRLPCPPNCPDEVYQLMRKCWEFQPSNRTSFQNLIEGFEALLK
Ribosomal protein S6 kinase alpha-2, sequence (Q15349 whole entry): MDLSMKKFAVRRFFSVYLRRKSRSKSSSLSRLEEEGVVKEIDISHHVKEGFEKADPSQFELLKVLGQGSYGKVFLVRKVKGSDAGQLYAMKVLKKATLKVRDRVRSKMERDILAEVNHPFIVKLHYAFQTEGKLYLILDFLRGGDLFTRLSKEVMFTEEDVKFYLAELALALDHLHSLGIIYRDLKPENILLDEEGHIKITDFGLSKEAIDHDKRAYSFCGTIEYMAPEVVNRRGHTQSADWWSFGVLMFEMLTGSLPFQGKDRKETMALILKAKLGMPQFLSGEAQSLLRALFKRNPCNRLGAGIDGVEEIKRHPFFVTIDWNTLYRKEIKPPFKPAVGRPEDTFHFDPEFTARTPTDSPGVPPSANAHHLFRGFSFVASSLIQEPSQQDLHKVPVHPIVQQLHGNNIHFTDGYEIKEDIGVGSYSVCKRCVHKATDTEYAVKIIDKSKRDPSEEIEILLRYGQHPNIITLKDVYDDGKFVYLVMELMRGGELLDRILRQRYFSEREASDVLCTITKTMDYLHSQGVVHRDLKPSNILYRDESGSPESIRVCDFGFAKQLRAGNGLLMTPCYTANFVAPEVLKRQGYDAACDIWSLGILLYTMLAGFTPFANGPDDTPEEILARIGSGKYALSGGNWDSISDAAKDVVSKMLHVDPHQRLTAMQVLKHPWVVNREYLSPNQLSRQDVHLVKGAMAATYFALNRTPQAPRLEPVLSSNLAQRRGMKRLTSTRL
STE20-like serine/threonine-protein kinase, sequence (Q9H2G2 whole entry): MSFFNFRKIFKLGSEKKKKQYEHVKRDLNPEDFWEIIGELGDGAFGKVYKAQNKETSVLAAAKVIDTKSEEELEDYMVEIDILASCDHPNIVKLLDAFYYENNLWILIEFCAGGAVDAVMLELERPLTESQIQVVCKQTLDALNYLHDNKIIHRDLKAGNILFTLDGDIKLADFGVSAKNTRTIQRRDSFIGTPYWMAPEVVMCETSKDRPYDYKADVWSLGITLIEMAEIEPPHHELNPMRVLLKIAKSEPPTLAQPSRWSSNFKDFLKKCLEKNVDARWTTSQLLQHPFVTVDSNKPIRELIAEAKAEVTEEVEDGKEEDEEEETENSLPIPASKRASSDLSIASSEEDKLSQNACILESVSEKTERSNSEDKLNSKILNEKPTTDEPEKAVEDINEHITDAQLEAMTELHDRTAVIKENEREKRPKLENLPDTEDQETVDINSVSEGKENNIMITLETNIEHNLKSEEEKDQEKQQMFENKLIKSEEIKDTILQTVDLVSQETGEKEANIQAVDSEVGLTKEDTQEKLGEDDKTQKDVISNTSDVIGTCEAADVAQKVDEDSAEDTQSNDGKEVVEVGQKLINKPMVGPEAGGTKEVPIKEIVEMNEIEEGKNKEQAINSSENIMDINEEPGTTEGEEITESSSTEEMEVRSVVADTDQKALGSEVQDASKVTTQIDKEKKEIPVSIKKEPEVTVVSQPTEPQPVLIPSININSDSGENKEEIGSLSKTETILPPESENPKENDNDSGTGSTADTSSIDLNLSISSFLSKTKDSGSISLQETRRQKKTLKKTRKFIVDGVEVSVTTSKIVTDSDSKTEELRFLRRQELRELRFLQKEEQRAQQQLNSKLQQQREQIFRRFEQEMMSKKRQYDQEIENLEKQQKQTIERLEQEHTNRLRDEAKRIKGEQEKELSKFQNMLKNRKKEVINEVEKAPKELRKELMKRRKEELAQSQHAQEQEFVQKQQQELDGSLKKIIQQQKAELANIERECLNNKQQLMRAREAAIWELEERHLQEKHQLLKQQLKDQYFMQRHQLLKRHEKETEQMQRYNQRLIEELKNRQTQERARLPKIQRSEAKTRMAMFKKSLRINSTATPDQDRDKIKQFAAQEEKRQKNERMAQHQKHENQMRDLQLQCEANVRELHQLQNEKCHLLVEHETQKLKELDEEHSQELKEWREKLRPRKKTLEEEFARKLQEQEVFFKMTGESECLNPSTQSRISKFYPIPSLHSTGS

COCC(=O)NC/C=C/c1ccc2ncnc(Nc3ccc(Oc4ccc(C)nc4)c(C)c3)c2c1 [CP-724714]
> 10 µM: all assays above

Nc1nc(Nc2ccc(S(N)(=O)=O)cc2)nn1C(=O)c1c(F)cccc1F [JNJ-7706621]
0.048 µM: [5]
1.8 µM: [7]
3.4 µM: [11]
not listed: [3] | [6] | [12]
> 10 µM: all other assays above

CCOc1cc2ncc(C#N)c(Nc3ccc(F)c(Cl)c3)c2cc1NC(=O)/C=C/CN(C)C [PELITINIB]
1.1 µM: [1] | [2]
8.7 µM: [9]
not listed: [5] | [10]
> 10 µM: all other assays above

Oc1ccc(-c2nc(-c3ccncc3)c(-c3ccc(F)cc3)[nH]2)cc1 [SB-202190]
3.2 µM: [5]
not listed: [1] | [8]
> 10 µM: all other assays above

NC(=O)c1ccc(-c2nc(-c3ccc4c(c3)OCO4)c(-c3ccccn3)[nH]2)cc1 [SB-431542]
not listed: [1]
> 10 µM: all other assays above
